± gives the expanded uncertainty stated by the source.
Test: mn = molality of the nth substance listed, in mol/kg
Details: 100 kPa, Liquid, Vibrating tube method

For `N[C@@H](Cc1c[nH]cn1)C(=O)O` [L-histidine] + O, the mass density (276.15 K, m1 = 0.0078) was 1000.45 ± 0.12 kg/m3, the mass density (276.15 K, m1 = 0.0176) was 1001.02 ± 0.12 kg/m3 and the mass density (276.15 K, m1 = 0.0269) was 1001.62 ± 0.12 kg/m3. The mass density (276.15 K, m1 = 0.048) was 1002.86 ± 0.12 kg/m3, the mass density (276.15 K, m1 = 0.0636) was 1003.88 ± 0.12 kg/m3 and the mass density (276.15 K, m1 = 0.0856) was 1005.13 ± 0.12 kg/m3. The mass density (276.15 K, m1 = 0.0982) was 1005.89 ± 0.12 kg/m3, the mass density (276.15 K, m1 = 0.115) was 1006.78 ± 0.12 kg/m3 and the mass density (276.15 K, m1 = 0.1268) was 1007.57 ± 0.12 kg/m3. The mass density (276.15 K, m1 = 0.138) was 1008.25 ± 0.12 kg/m3, the mass density (276.15 K, m1 = 0.1586) was 1009.57 ± 0.12 kg/m3 and the mass density (276.65 K, m1 = 0.0078) was 1000.46 ± 0.12 kg/m3. It also gave a mass density (276.65 K, m1 = 0.0176) of 1001.02 ± 0.12 kg/m3, a mass density (276.65 K, m1 = 0.0269) of 1001.62 ± 0.12 kg/m3 and a mass density (276.65 K, m1 = 0.048) of 1002.86 ± 0.12 kg/m3. It also gave a mass density (276.65 K, m1 = 0.0636) of 1003.88 ± 0.12 kg/m3, a mass density (276.65 K, m1 = 0.0856) of 1005.12 ± 0.12 kg/m3 and a mass density (276.65 K, m1 = 0.0982) of 1005.88 ± 0.12 kg/m3. The mass density (276.65 K, m1 = 0.115) was 1006.77 ± 0.12 kg/m3, the mass density (276.65 K, m1 = 0.1268) was 1007.56 ± 0.12 kg/m3 and the mass density (276.65 K, m1 = 0.138) was 1008.23 ± 0.12 kg/m3. For the same compound, the mass density (276.65 K, m1 = 0.1586) was 1009.55 ± 0.12 kg/m3, the mass density (277.15 K, m1 = 0.0078) was 1000.45 ± 0.12 kg/m3 and the mass density (277.15 K, m1 = 0.0176) was 1001.02 ± 0.12 kg/m3. The mass density (277.15 K, m1 = 0.0269) was 1001.62 ± 0.12 kg/m3, the mass density (277.15 K, m1 = 0.048) was 1002.85 ± 0.12 kg/m3 and the mass density (277.15 K, m1 = 0.0636) was 1003.88 ± 0.12 kg/m3. For the same compound, the mass density (277.15 K, m1 = 0.0856) was 1005.11 ± 0.12 kg/m3, the mass density (277.15 K, m1 = 0.0982) was 1005.87 ± 0.12 kg/m3 and the mass density (277.15 K, m1 = 0.115) was 1006.76 ± 0.12 kg/m3. For the same compound, the mass density (277.15 K, m1 = 0.1268) was 1007.54 ± 0.12 kg/m3, the mass density (277.15 K, m1 = 0.138) was 1008.22 ± 0.12 kg/m3 and the mass density (277.15 K, m1 = 0.1586) was 1009.54 ± 0.12 kg/m3. It also gave a mass density (277.65 K, m1 = 0.0078) of 1000.45 ± 0.12 kg/m3, a mass density (277.65 K, m1 = 0.0176) of 1001.02 ± 0.12 kg/m3 and a mass density (277.65 K, m1 = 0.0269) of 1001.62 ± 0.12 kg/m3. It also gave a mass density (277.65 K, m1 = 0.048) of 1002.85 ± 0.12 kg/m3, a mass density (277.65 K, m1 = 0.0636) of 1003.87 ± 0.12 kg/m3 and a mass density (277.65 K, m1 = 0.0856) of 1005.1 ± 0.12 kg/m3. The mass density (277.65 K, m1 = 0.0982) was 1005.86 ± 0.12 kg/m3, the mass density (277.65 K, m1 = 0.115) was 1006.75 ± 0.12 kg/m3 and the mass density (277.65 K, m1 = 0.1268) was 1007.53 ± 0.12 kg/m3. It also gave a mass density (277.65 K, m1 = 0.138) of 1008.2 ± 0.12 kg/m3, a mass density (277.65 K, m1 = 0.1586) of 1009.52 ± 0.12 kg/m3 and a mass density (278.15 K, m1 = 0.0078) of 1000.44 ± 0.12 kg/m3. The mass density (278.15 K, m1 = 0.0176) was 1001.01 ± 0.12 kg/m3, the mass density (278.15 K, m1 = 0.0269) was 1001.61 ± 0.12 kg/m3 and the mass density (278.15 K, m1 = 0.048) was 1002.84 ± 0.12 kg/m3. It also gave a mass density (278.15 K, m1 = 0.0636) of 1003.85 ± 0.12 kg/m3, a mass density (278.15 K, m1 = 0.0856) of 1005.09 ± 0.12 kg/m3 and a mass density (278.15 K, m1 = 0.0982) of 1005.85 ± 0.12 kg/m3. For the same compound, the mass density (278.15 K, m1 = 0.115) was 1006.73 ± 0.12 kg/m3, the mass density (278.15 K, m1 = 0.1268) was 1007.51 ± 0.12 kg/m3 and the mass density (278.15 K, m1 = 0.138) was 1008.18 ± 0.12 kg/m3. For the same compound, the mass density (278.15 K, m1 = 0.1586) was 1009.5 ± 0.12 kg/m3.

Source: the NIST ThermoML archive (doi:10.1021/acs.jced.9b00752)
